# System: B16 cells gene expression
# Assay: RNA-Seq (DEGs, GSEA, heatmaps) of B16 cells
# Conditions: B16 cells
smiles,measurement,setting,value
"COc1cc(N)cc2c1nc(C(F)F)n2-c1nc(N2CCCOCC2)nc(N2CCOCC2)n1 [KTC1101, 2-(difluoromethyl)-4-methoxy-1-(4-morpholino-6-(1,4-oxazepan-4-yl)-1,3,5-triazin-2-yl)-1H-benzo[d]imidazol-6-amine]","enrichmentScore, mmu04211 Longevity regulating pathway","KTC1101 0.2μM, GSEA KEGG",0.2589
same,"enrichmentScore, mmu04213 Longevity regulating pathway - multiple species","KTC1101 0.2μM, GSEA KEGG",0.2778
same,"enrichmentScore, mmu04215 Apoptosis - multiple species","KTC1101 0.2μM, GSEA KEGG",0.3327
same,"enrichmentScore, mmu04216 Ferroptosis","KTC1101 0.2μM, GSEA KEGG",-0.2787
same,"enrichmentScore, mmu04217 Necroptosis","KTC1101 0.2μM, GSEA KEGG",-0.2455
same,"enrichmentScore, mmu04270 Vascular smooth muscle contraction","KTC1101 0.2μM, GSEA KEGG",0.2845
same,"enrichmentScore, mmu04360 Axon guidance","KTC1101 0.2μM, GSEA KEGG",0.2929
same,"enrichmentScore, mmu04392 Hippo signaling pathway - multiple species","KTC1101 0.2μM, GSEA KEGG",0.3945
same,"enrichmentScore, mmu04514 Cell adhesion molecules","KTC1101 0.2μM, GSEA KEGG",0.3446
same,"enrichmentScore, mmu04520 Adherens junction","KTC1101 0.2μM, GSEA KEGG",0.258
same,"enrichmentScore, mmu04530 Tight junction","KTC1101 0.2μM, GSEA KEGG",-0.1527
same,"enrichmentScore, mmu04550 Signaling pathways regulating pluripotency of stem cells","KTC1101 0.2μM, GSEA KEGG",0.3252
same,"enrichmentScore, mmu04611 Platelet activation","KTC1101 0.2μM, GSEA KEGG",0.2724
same,"enrichmentScore, mmu04612 Antigen processing and presentation","KTC1101 0.2μM, GSEA KEGG",0.2974
same,"enrichmentScore, mmu04622 RIG-I-like receptor signaling pathway","KTC1101 0.2μM, GSEA KEGG",0.2627
same,"enrichmentScore, mmu04623 Cytosolic DNA-sensing pathway","KTC1101 0.2μM, GSEA KEGG",0.3684
same,"enrichmentScore, mmu04650 Natural killer cell mediated cytotoxicity","KTC1101 0.2μM, GSEA KEGG",0.2671
same,"enrichmentScore, mmu04658 Th1 and Th2 cell differentiation","KTC1101 0.2μM, GSEA KEGG",0.359
same,"enrichmentScore, mmu04660 T cell receptor signaling pathway","KTC1101 0.2μM, GSEA KEGG",0.174
same,"enrichmentScore, mmu04662 B cell receptor signaling pathway","KTC1101 0.2μM, GSEA KEGG",0.2749
same,"enrichmentScore, mmu04666 Fc gamma R-mediated phagocytosis","KTC1101 0.2μM, GSEA KEGG",-0.2944
same,"enrichmentScore, mmu04670 Leukocyte transendothelial migration","KTC1101 0.2μM, GSEA KEGG",0.2117
same,"enrichmentScore, mmu04714 Thermogenesis","KTC1101 0.2μM, GSEA KEGG",-0.2154
same,"enrichmentScore, mmu04720 Long-term potentiation","KTC1101 0.2μM, GSEA KEGG",0.2329
same,"enrichmentScore, mmu04723 Retrograde endocannabinoid signaling","KTC1101 0.2μM, GSEA KEGG",0.2816
same,"enrichmentScore, mmu04726 Serotonergic synapse","KTC1101 0.2μM, GSEA KEGG",0.3744
same,"enrichmentScore, mmu04727 GABAergic synapse","KTC1101 0.2μM, GSEA KEGG",0.3552
same,"enrichmentScore, mmu04728 Dopaminergic synapse","KTC1101 0.2μM, GSEA KEGG",0.2754
same,"enrichmentScore, mmu04730 Long-term depression","KTC1101 0.2μM, GSEA KEGG",0.3483
same,"enrichmentScore, mmu04750 Inflammatory mediator regulation of TRP channels","KTC1101 0.2μM, GSEA KEGG",0.2734
same,"enrichmentScore, mmu04910 Insulin signaling pathway","KTC1101 0.2μM, GSEA KEGG",0.2919
same,"enrichmentScore, mmu04912 GnRH signaling pathway","KTC1101 0.2μM, GSEA KEGG",0.3311
same,"enrichmentScore, mmu04915 Estrogen signaling pathway","KTC1101 0.2μM, GSEA KEGG",0.2687
same,"enrichmentScore, mmu04916 Melanogenesis","KTC1101 0.2μM, GSEA KEGG",0.2873
same,"enrichmentScore, mmu04917 Prolactin signaling pathway","KTC1101 0.2μM, GSEA KEGG",0.2949
same,"enrichmentScore, mmu04920 Adipocytokine signaling pathway","KTC1101 0.2μM, GSEA KEGG",0.3361
same,"enrichmentScore, mmu04929 GnRH secretion","KTC1101 0.2μM, GSEA KEGG",-0.3021
same,"enrichmentScore, mmu04930 Type II diabetes mellitus","KTC1101 0.2μM, GSEA KEGG",0.385
same,"enrichmentScore, mmu04932 Non-alcoholic fatty liver disease","KTC1101 0.2μM, GSEA KEGG",-0.2292
same,"enrichmentScore, mmu04934 Cushing syndrome","KTC1101 0.2μM, GSEA KEGG",0.2719
same,"enrichmentScore, mmu04936 Alcoholic liver disease","KTC1101 0.2μM, GSEA KEGG",0.2103
same,"enrichmentScore, mmu04960 Aldosterone-regulated sodium reabsorption","KTC1101 0.2μM, GSEA KEGG",0.4243
same,"enrichmentScore, mmu04961 Endocrine and other factor-regulated calcium reabsorption","KTC1101 0.2μM, GSEA KEGG",0.3281
same,"enrichmentScore, mmu04962 Vasopressin-regulated water reabsorption","KTC1101 0.2μM, GSEA KEGG",0.3811
same,"enrichmentScore, mmu04970 Salivary secretion","KTC1101 0.2μM, GSEA KEGG",0.3709
same,"enrichmentScore, mmu04972 Pancreatic secretion","KTC1101 0.2μM, GSEA KEGG",0.3054
same,"enrichmentScore, mmu05017 Spinocerebellar ataxia","KTC1101 0.2μM, GSEA KEGG",-0.2487
same,"enrichmentScore, mmu05031 Amphetamine addiction","KTC1101 0.2μM, GSEA KEGG",0.3398
same,"enrichmentScore, mmu05034 Alcoholism","KTC1101 0.2μM, GSEA KEGG",0.2877
same,"enrichmentScore, mmu05100 Bacterial invasion of epithelial cells","KTC1101 0.2μM, GSEA KEGG",0.1912
same,"enrichmentScore, mmu05132 Salmonella infection","KTC1101 0.2μM, GSEA KEGG",-0.223
same,"enrichmentScore, mmu05133 Pertussis","KTC1101 0.2μM, GSEA KEGG",0.2038
same,"enrichmentScore, mmu05134 Legionellosis","KTC1101 0.2μM, GSEA KEGG",0.3271
same,"enrichmentScore, mmu05135 Yersinia infection","KTC1101 0.2μM, GSEA KEGG",0.1452
same,"enrichmentScore, mmu05145 Toxoplasmosis","KTC1101 0.2μM, GSEA KEGG",0.3104
same,"enrichmentScore, mmu05160 Hepatitis C","KTC1101 0.2μM, GSEA KEGG",-0.1925
same,"enrichmentScore, mmu05162 Measles","KTC1101 0.2μM, GSEA KEGG",0.3001
same,"enrichmentScore, mmu05165 Human papillomavirus infection","KTC1101 0.2μM, GSEA KEGG",0.2105
same,"enrichmentScore, mmu05170 Human immunodeficiency virus 1 infection","KTC1101 0.2μM, GSEA KEGG",0.2282
same,"enrichmentScore, mmu05200 Pathways in cancer","KTC1101 0.2μM, GSEA KEGG",0.2563
same,"enrichmentScore, mmu05203 Viral carcinogenesis","KTC1101 0.2μM, GSEA KEGG",0.2271
same,"enrichmentScore, mmu05204 Chemical carcinogenesis - DNA adducts","KTC1101 0.2μM, GSEA KEGG",-0.3876
same,"enrichmentScore, mmu05206 MicroRNAs in cancer","KTC1101 0.2μM, GSEA KEGG",0.2735
same,"enrichmentScore, mmu05207 Chemical carcinogenesis - receptor activation","KTC1101 0.2μM, GSEA KEGG",0.2555
same,"enrichmentScore, mmu05210 Colorectal cancer","KTC1101 0.2μM, GSEA KEGG",0.2135
same,"enrichmentScore, mmu05211 Renal cell carcinoma","KTC1101 0.2μM, GSEA KEGG",-0.2497
same,"enrichmentScore, mmu05212 Pancreatic cancer","KTC1101 0.2μM, GSEA KEGG",-0.2279
same,"enrichmentScore, mmu05213 Endometrial cancer","KTC1101 0.2μM, GSEA KEGG",-0.2692
same,"enrichmentScore, mmu05214 Glioma","KTC1101 0.2μM, GSEA KEGG",0.2912
same,"enrichmentScore, mmu05216 Thyroid cancer","KTC1101 0.2μM, GSEA KEGG",0.217
same,"enrichmentScore, mmu05218 Melanoma","KTC1101 0.2μM, GSEA KEGG",0.3678
same,"enrichmentScore, mmu05219 Bladder cancer","KTC1101 0.2μM, GSEA KEGG",0.2813
same,"enrichmentScore, mmu05220 Chronic myeloid leukemia","KTC1101 0.2μM, GSEA KEGG",0.2762
same,"enrichmentScore, mmu05223 Non-small cell lung cancer","KTC1101 0.2μM, GSEA KEGG",-0.2111
same,"enrichmentScore, mmu05231 Choline metabolism in cancer","KTC1101 0.2μM, GSEA KEGG",0.3293
same,"enrichmentScore, mmu05235 PD-L1 expression and PD-1 checkpoint pathway in cancer","KTC1101 0.2μM, GSEA KEGG",0.291
same,"enrichmentScore, mmu05412 Arrhythmogenic right ventricular cardiomyopathy","KTC1101 0.2μM, GSEA KEGG",0.3444
same,"enrichmentScore, mmu05416 Viral myocarditis","KTC1101 0.2μM, GSEA KEGG",0.3314
same,"enrichmentScore, mmu05417 Lipid and atherosclerosis","KTC1101 0.2μM, GSEA KEGG",0.3016
same,NES: Coronavirus disease - COVID-19,"[…], KTC 0.2μM",2.023
same,enrichmentScore: Coronavirus disease - COVID-19,"[…], KTC 0.2μM",0.5276
